The test system of this data set is rodent lifetime carcinogenesis bioassay, tumor incidence TD50. Nature of the data set: chronic cancer bioassays in animals – CPDB, compiled studies (AID 1745844).
Setting [1] is: mouse, strain B6AKF1, males, oral dosing, site: liver, lesion: hepatoma, dosed 76 weeks, study length 76 weeks.
[2] abbreviates: mouse, strain B6C3F1, females, oral dosing, site: any site (literature study), lesion: several types, types named in the paper, dosed 76 weeks, study length 76 weeks.
The mark [3] stands for this setting: mouse, strain B6C3F1, males, oral dosing, site: any site (literature study), lesion: several types, types named in the paper, dosed 76 weeks, study length 76 weeks.
[4] abbreviates: mouse, strain B6C3F1, males, oral dosing, site: liver, lesion: hepatoma, dosed 76 weeks, study length 76 weeks.

Several values for one entry are separate records, joined by “and”; a condition that tells them apart may be missing. Equal entries are not always repeated. Activity calls are given as the source filed them. No rule for the calls is given here.

The term TD50 denotes the dose at which the toxic effect under study appears in half of the subjects. On to `NC(=O)Cc1cccc2ccccc12`, for which the TD50 runs as follows: (mouse, strain B6AKF1, females, oral dosing, site: any site (literature study), lesion: several types, types named in the paper, dosed 76 weeks, study length 76 weeks) 956 mg/kg/day (inactive); under setting [2], 213 mg/kg/day (inactive); (mouse, strain B6C3F1, females, oral dosing, site: liver, lesion: hepatoma, dosed 76 weeks, study length 76 weeks) 956 mg/kg/day (inactive); (mouse, strain B6C3F1, females, oral dosing, site: lung, lesion: adenoma, dosed 76 weeks, study length 76 weeks) 461 mg/kg/day (inactive); under setting [3], 141 mg/kg/day (inactive); under setting [4], 316 mg/kg/day (inactive). In addition, for the setting “mouse, strain B6C3F1, males, oral dosing, site: lung, lesion: adenoma, dosed 76 weeks, study length 76 weeks”, the TD50 is 1010 mg/kg/day (inactive). In addition, the carcinogen call is, setting by setting: (mouse, strain B6AKF1, females, oral dosing, site: liver, lesion: hepatoma, dosed 76 weeks, study length 76 weeks) “negative (inactive)”; (mouse, strain B6AKF1, females, oral dosing, site: lung, lesion: adenoma, dosed 76 weeks, study length 76 weeks) “negative (inactive)”; (mouse, strain B6AKF1, males, oral dosing, site: any site (literature study), lesion: several types, types named in the paper, dosed 76 weeks, study length 76 weeks) “negative (inactive)”; under setting [1], “negative (inactive)”; (mouse, strain B6AKF1, males, oral dosing, site: lung, lesion: adenoma, dosed 76 weeks, study length 76 weeks) “negative (inactive)”.

`NC(=O)N(CCF)N=O`: the TD50 is, setting by setting: (rat, strain Fischer 344, males, by gavage, site: forestomach, lesion: one or several types, types not named, dosed 40 weeks, study length 104 weeks) 0.125 mg/kg/day; (rat, strain Fischer 344, males, by gavage, site: lung, lesion: several types, types named in the paper, dosed 40 weeks, study length 104 weeks) 0.279 mg/kg/day.

Take `CCOP(=O)=O.CCOP(=O)=O.CCOP(=O)=O.[Al+3]`: the TD50 was found to be 14600 mg/kg/day (rat, strain Charles River CD1, females, in feed, site: kidney/pelvis, lesion: several types, types named in the paper, dosed 104 weeks, study length 104 weeks); 17800 mg/kg/day (rat, strain Charles River CD1, females, in feed, site: kidney/pelvis, lesion: transitional-cell carcinoma, dosed 104 weeks, study length 104 weeks); 80400 mg/kg/day (rat, strain Charles River CD1, females, in feed, site: kidney/pelvis, lesion: transitional-cell papilloma, dosed 104 weeks, study length 104 weeks); 110000 mg/kg/day (rat, strain Charles River CD1, females, in feed, site: urinary bladder, lesion: adenosquamous carcinoma, dosed 104 weeks, study length 104 weeks); 17600 mg/kg/day (rat, strain Charles River CD1, females, in feed, site: urinary bladder, lesion: several types, types named in the paper, dosed 104 weeks, study length 104 weeks); 23900 mg/kg/day (rat, strain Charles River CD1, females, in feed, site: urinary bladder, lesion: transitional-cell carcinoma, dosed 104 weeks, study length 104 weeks). The TD50 runs as follows: (rat, strain Charles River CD1, females, in feed, site: urinary bladder, lesion: transitional-cell papilloma, dosed 104 weeks, study length 104 weeks) 452000 mg/kg/day; (rat, strain Charles River CD1, males, in feed, site: kidney/pelvis, lesion: several types, types named in the paper, dosed 104 weeks, study length 104 weeks) 36400 mg/kg/day; (rat, strain Charles River CD1, males, in feed, site: kidney/pelvis, lesion: transitional-cell papilloma, dosed 104 weeks, study length 104 weeks) 31800 mg/kg/day; (rat, strain Charles River CD1, males, in feed, site: urinary bladder, lesion: several types, types named in the paper, dosed 104 weeks, study length 104 weeks) 3660 mg/kg/day; (rat, strain Charles River CD1, males, in feed, site: urinary bladder, lesion: transitional-cell carcinoma, dosed 104 weeks, study length 104 weeks) 5000 mg/kg/day; (rat, strain Charles River CD1, males, in feed, site: urinary bladder, lesion: transitional-cell papilloma, dosed 104 weeks, study length 104 weeks) 17200 mg/kg/day.

`C1CCNCC1`: the TD50 (rat, strain MRC, females, in drinking water, site: any site (literature study), lesion: several types, types named in the paper, dosed 75 weeks, study length 104 weeks) turned out to be 63.3 mg/kg/day.

Take `O=C1C(c2[nH]c3ccc(S(=O)(=O)O)cc3c2O)=Nc2ccc(S(=O)(=O)O)cc21`: the carcinogen call is “negative (inactive)” (mouse, strain Charles River CD1, females, in feed, site: liver, lesion: nodular hyperplasia, dosed 84 weeks, study length 84 weeks); “negative (inactive)” (mouse, strain Charles River CD1, females, in feed, site: lung, lesion: adenoma, dosed 84 weeks, study length 84 weeks); “negative (inactive)” (mouse, strain Charles River CD1, males, in feed, site: lung, lesion: adenoma, dosed 84 weeks, study length 84 weeks); “negative (inactive)” (mouse, strain Charles River CD (Sprague-Dawley), females, in feed, site: any site (literature study), lesion: several types, types named in the paper, dosed 100 weeks, study length 100 weeks). In addition, the TD50 by setting is: (mouse, strain Charles River CD1, males, in feed, site: liver, lesion: nodular hyperplasia, dosed 84 weeks, study length 84 weeks) 20200 mg/kg/day (inactive); (mouse, strain Charles River CD (Sprague-Dawley), females, in feed, site: any site (literature study), lesion: malignant tumor, dosed 100 weeks, study length 100 weeks) 33900 mg/kg/day (inactive); (mouse, strain Charles River CD (Sprague-Dawley), males, in feed, site: any site (literature study), lesion: malignant tumor, dosed 95 weeks, study length 95 weeks) 57100 mg/kg/day (inactive); (mouse, strain Charles River CD (Sprague-Dawley), males, in feed, site: any site (literature study), lesion: several types, types named in the paper, dosed 95 weeks, study length 95 weeks) 23400 mg/kg/day (inactive); (rat, strain Osborne-Mendel, both sexes, in feed, site: any site (literature study), lesion: several types, types named in the paper, dosed 104 weeks, study length 104 weeks) 5430 mg/kg/day (inactive).

As to `CC1=C2C(=CO[C@H](C)[C@H]2C)C(=O)C(C(=O)O)=C1O`, the carcinogen call by setting is: (rat, strain Fischer 344, males, in feed, site: kidney, lesion: clear-cell adenoma, dosed 60 weeks, study length 60 weeks) “positive”; (rat, strain Fischer 344, males, in feed, site: kidney, lesion: clear-cell adenoma, dosed 80 weeks, study length 80 weeks) “positive”.

With `CCCCCCCCS(=O)C(C)Cc1ccc2c(c1)OCO2` (stereo unspecified), the TD50 was 88.2 mg/kg/day under setting [1]; 725 mg/kg/day (mouse, strain B6C3F1, females, in feed, site: liver, lesion: hepatocellular adenoma + hepatocellular carcinoma + neoplastic nodule, dosed 104 weeks, study length 104 weeks); 100 mg/kg/day under setting [2]; 423 mg/kg/day (mouse, strain B6C3F1, males, in feed, site: any site (literature study), lesion: several types, types named in the paper, dosed 104 weeks, study length 104 weeks); 62.2 mg/kg/day (mouse, strain B6C3F1, males, in feed, site: liver, lesion: hepatocellular adenoma + hepatocellular carcinoma + neoplastic nodule, dosed 104 weeks, study length 104 weeks); 62.2 mg/kg/day (mouse, strain B6C3F1, males, in feed, site: liver, lesion: hepatocellular carcinoma, dosed 104 weeks, study length 104 weeks). Also, the TD50 reads like this: (mouse, strain B6C3F1, males, oral dosing, site: all sites, lesion: reticulum-cell sarcoma, dosed 76 weeks, study length 76 weeks) 9.1 mg/kg/day; under setting [3], 7.72 mg/kg/day; under setting [4], 45.4 mg/kg/day; (rat, strain Fischer 344, females, in feed, site: any site (literature study), lesion: several types, types named in the paper, dosed 105 weeks, study length 105 weeks) 2300 mg/kg/day (inactive); (rat, strain Fischer 344, males, in feed, site: liver, lesion: hepatocellular adenoma + hepatocellular carcinoma + neoplastic nodule, dosed 105 weeks, study length 105 weeks) 2650 mg/kg/day. Besides, the carcinogen call was “negative (inactive)” (mouse, strain B6C3F1, females, in feed, site: any site (literature study), lesion: several types, types named in the paper, dosed 104 weeks, study length 104 weeks) and “negative (inactive)” (rat, strain Fischer 344, males, in feed, site: any site (literature study), lesion: several types, types named in the paper, dosed 105 weeks, study length 105 weeks).

`CC(=O)Nc1cccc2c1Cc1ccccc1-2` yielded a TD50 (rat, strain Buffalo, females, in feed, site: adrenal gland, lesion: carcinoma, dosed 47 weeks, study length 88 weeks) of 54.8 mg/kg/day; a TD50 (rat, strain Buffalo, females, in feed, site: all sites, lesion: leukemia, indeterminate type, dosed 47 weeks, study length 88 weeks) of 54.8 mg/kg/day; a TD50 (rat, strain Buffalo, females, in feed, site: ovary, lesion: granulosa-cell carcinoma, dosed 47 weeks, study length 88 weeks) of 54.8 mg/kg/day; a TD50 (rat, strain Buffalo, females, in feed, site: pituitary gland, lesion: adenoma, dosed 47 weeks, study length 88 weeks) of 43.5 mg/kg/day; a TD50 (rat, strain Buffalo, females, in feed, site: uterus, lesion: carcinosarcoma, dosed 47 weeks, study length 88 weeks) of 54.8 mg/kg/day.

`COCCl`: the TD50 was 32.9 mg/kg/day (hamster, strain Syrian Golden, males, inhaled, site: lung, lesion: adenocarcinoma, dosed 113 weeks, study length 124 weeks); 16.4 mg/kg/day (hamster, strain Syrian Golden, males, inhaled, site: several sites, sites named in the paper, lesion: several types, types named in the paper, dosed 113 weeks, study length 124 weeks); 5.5 mg/kg/day (rat, strain Sprague-Dawley, males, inhaled, site: several sites, sites named in the paper, lesion: several types, types named in the paper, dosed 113 weeks, study length 122 weeks).

Consider `Cc1ccc(N)c(C)c1`, for which the TD50 runs as follows: (mouse, strain CD-1 HaM/ICR, females, in feed, site: any site (literature study), lesion: several types, types named in the paper, dosed 77 weeks, study length 90 weeks) 12.2 mg/kg/day; (mouse, strain CD-1 HaM/ICR, females, in feed, site: lung, lesion: several types, types named in the paper, dosed 77 weeks, study length 90 weeks) 12.4 mg/kg/day and 13.5 mg/kg/day; (mouse, strain CD-1 HaM/ICR, males, in feed, site: any site (literature study), lesion: several types, types named in the paper, dosed 77 weeks, study length 90 weeks) 646 mg/kg/day (inactive); (mouse, strain CD-1 HaM/ICR, males, in feed, site: liver, lesion: several types, types named in the paper, dosed 77 weeks, study length 90 weeks) 65.4 mg/kg/day (inactive); (rat, strain Charles River CD (Sprague-Dawley), males, in feed, site: any site (literature study), lesion: several types, types named in the paper, dosed 77 weeks, study length 98 weeks) 16.8 mg/kg/day (inactive); (rat, strain Charles River CD (Sprague-Dawley), males, in feed, site: liver, lesion: several types, types named in the paper, dosed 77 weeks, study length 98 weeks) 260 mg/kg/day (inactive). In addition, the carcinogen call is, setting by setting: (mouse, strain CD-1 HaM/ICR, females, in feed, site: liver, lesion: several types, types named in the paper, dosed 77 weeks, study length 90 weeks) “negative (inactive)”; (mouse, strain CD-1 HaM/ICR, males, in feed, site: lung, lesion: several types, types named in the paper, dosed 77 weeks, study length 90 weeks) “negative (inactive)”.

In the case of `CN[C@H]1CC[C@@H](c2ccc(Cl)c(Cl)c2)c2ccccc21`, the TD50 is 247 mg/kg/day (inactive) (mouse, strain Charles River CD1, females, in feed, site: lung, lesion: alveolar/bronchiolar adenoma, dosed 104 weeks, study length 104 weeks); 147 mg/kg/day (mouse, strain Charles River CD1, males, in feed, site: liver, lesion: hepatocellular adenoma, dosed 104 weeks, study length 104 weeks); 425 mg/kg/day (mouse, strain Charles River CD1, males, in feed, site: liver, lesion: hepatocellular carcinoma, dosed 104 weeks, study length 104 weeks); 352 mg/kg/day (inactive) (rat, strain Long-Evans, females, in feed, site: thyroid gland, lesion: follicular-cell adenoma, dosed 104 weeks, study length 104 weeks).

The values are drawn from PubChem BioAssay AID1745844 (Carcinogenic Potency Database (CPDB), 2022).
